Measured values reported in US8802597B2, “Herbicidal pyrimidines” (E I du Pont de Nemours and Company, priority 2003, dated 2014).
Read-outs that look alike come from different tables or passages of the source.

Columns and labels:
Assay type in all cases: in vivo
[1] = system: umbrella sedge (Cyperus difformis); assay: Test B flooded paddy test; details: Cyperus difformis, Flood, 1000 g ai/ha; scale 0 to 100; read-out: Plant response rating, Sedge, Umbrella
Outline: (§1)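 Plants were grown to the 2-leaf stage before treatment, then kept in a greenhouse for 13 to 15 days. Injury was rated visually against untreated controls on a 0 to 100 scale, where 0 is no effect and 100 is complete control.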

[2] = system: barnyardgrass (Echinochloa crus-galli); assay: Test B flooded paddy test; details: Echinochloa crus-galli, Flood, 1000 g ai/ha; scale 0 (no effect) to 100 (complete control); read-out: Plant response rating, Barnyardgrass
Outline: as §1

[3] = system: duck salad (Heteranthera limosa); assay: Test B flooded paddy test; details: Heteranthera limosa, Flood, 1000 g ai/ha; scale 0 to 100; read-out: Plant response rating, Ducksalad
Outline: as §1

rice (Oryza sativa) = assay: Test B flooded paddy test; details: Oryza sativa, Flood, 1000 g ai/ha; scale 0 to 100; read-out: Plant response rating, Rice
Outline: as §1

wild oat (Avena fatua) = assay: Test B postemergence; details: Avena fatua, post-emergence
Outline: (§2)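 Scores reflect visual comparison with untreated controls, where 0 means no effect and 100 complete control. Plants stayed 13 to 15 days in the greenhouse after pre- or postemergence treatment with compounds carried in a non-phytotoxic solvent and surfactant.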

[4] = system: blackgrass (Alopecurus myosuroides); assay: Test B postemergence; details: Alopecurus myosuroides, post-emergence
Outline: as §2

[5] = system: Surinam grass (Brachiaria decumbens); assay: Test B pre/postemergence; details: Urochloa decumbens; for pest or weed control at 125 g/ha: 125 g ai/ha; for pest or weed control at 500 g/ha: 500 g ai/ha
Outline: as §2

[6] = system: pigweed (Amaranthus retroflexus); assay: Test B pre/postemergence; details: Amaranthus retroflexus; for pest or weed control at 125 g/ha: 125 g ai/ha; for pest or weed control at 500 g/ha: 500 g ai/ha
Outline: as §2

[7] = system: lambsquarters (Chenopodium album); assay: Test B pre/postemergence; details: Chenopodium album; for pest or weed control at 125 g/ha: 125 g ai/ha; for pest or weed control at 500 g/ha: 500 g ai/ha
Outline: as §2

[8] = system: crabgrass (Digitaria sanguinalis); assay: Test B pre/postemergence; details: Digitaria sanguinalis; for pest or weed control at 125 g/ha: 125 g ai/ha; for pest or weed control at 500 g/ha: 500 g ai/ha
Outline: as §2

[9] = system: morningglory (Ipomoea coccinea); assay: Test B pre/postemergence; details: Ipomoea; for pest or weed control at 125 g/ha: 125 g ai/ha; for pest or weed control at 500 g/ha: 500 g ai/ha
Outline: as §2

[10] = system: velvetleaf (Abutilon theophrasti); assay: Test B pre/postemergence; details: Abutilon theophrasti; for pest or weed control at 125 g/ha: 125 g ai/ha; for pest or weed control at 500 g/ha: 500 g ai/ha
Outline: as §2

[11] = system: barnyardgrass (Echinochloa crus-galli); assay: Test B pre/postemergence; details: Echinochloa crus-galli; for pest or weed control at 125 g/ha: 125 g ai/ha; for pest or weed control at 500 g/ha: 500 g ai/ha
Outline: as §2

[12] = system: giant foxtail (Setaria faberii); assay: Test B pre/postemergence; details: Setaria faberi; for pest or weed control at 125 g/ha: 125 g ai/ha; for pest or weed control at 500 g/ha: 500 g ai/ha
Outline: as §2

[13] = system: cocklebur (Xanthium strumarium); assay: Test B pre/postemergence; details: Xanthium strumarium; for pest or weed control at 125 g/ha: 125 g ai/ha; for pest or weed control at 500 g/ha: 500 g ai/ha
Outline: as §2

corn (Zea mays) = assay: Test B pre/postemergence; details: Zea mays
Outline: as §2

[14] = system: wheat (Triticum aestivum); assay: Test B pre/postemergence; details: Triticum aestivum; for plant injury at 125 g/ha: 125 g ai/ha; for plant injury at 500 g/ha: 500 g ai/ha
Outline: as §2

Nc1nc(C2CC2)nc(CO)c1Br [Compound 21]
pest or weed control at 1000 g/ha [1]: 0% | pest or weed control at 1000 g/ha [2]: 60% | pest or weed control at 1000 g/ha [3]: 80% | plant injury at 1000 g/ha (rice (Oryza sativa)): 40% | pest or weed control at 125 g/ha (wild oat (Avena fatua); 125 g ai/ha, scale 0 to 100 (0 no effect, 100 complete control), read-out: Oat, Wild plant response rating): 0% | pest or weed control at 500 g/ha (wild oat (Avena fatua); 500 g ai/ha, scale 0 to 100, read-out: Plant response rating, Oat, Wild): 0% | pest or weed control at 125 g/ha ([4]; 125 g ai/ha, scale 0 to 100 (0 no effect, 100 complete control), read-out: Blackgrass plant response rating): 10% | pest or weed control at 500 g/ha ([4]; 500 g ai/ha, scale 0 to 100, read-out: Plant response rating, Blackgrass): 20% | pest or weed control at 125 g/ha ([5]; post-emergence, Postemergence, scale 0 to 100 (0 no effect, 100 complete control), read-out: Surinam Grass plant response rating): 0% | pest or weed control at 500 g/ha ([5]; post-emergence, Postemergence, scale 0 to 100, read-out: Plant response rating, Surinam Grass): 0% | pest or weed control at 125 g/ha ([5]; pre-emergence, Preemergence, scale 0 to 100 (0 no effect, 100 complete control), read-out: Plant response rating, Surinam Grass): 0% | pest or weed control at 500 g/ha ([5]; pre-emergence, Preemergence, scale 0 to 100 (0 no effect, 100 complete control), read-out: Surinam Grass plant response rating): 20% | pest or weed control at 125 g/ha ([6]; post-emergence, Postemergence, scale 0 to 100 (0 no effect, 100 complete control), read-out: Pigweed plant response rating): 0% | pest or weed control at 500 g/ha ([6]; post-emergence, Postemergence, scale 0 to 100, read-out: Plant response rating, Pigweed): 30% | pest or weed control at 125 g/ha ([6]; pre-emergence, Preemergence, scale 0 to 100 (0 no effect, 100 complete control), read-out: Plant response rating, Pigweed): 50% | pest or weed control at 500 g/ha ([6]; pre-emergence, Preemergence, scale 0 to 100 (0 no effect, 100 complete control), read-out: Pigweed plant response rating): 70% | pest or weed control at 125 g/ha ([7]; post-emergence, Postemergence, scale 0 to 100 (0 no effect, 100 complete control), read-out: Lambsquarters plant response rating): 10% | pest or weed control at 500 g/ha ([7]; post-emergence, Postemergence, scale 0 to 100, read-out: Plant response rating, Lambsquarters): 20% | pest or weed control at 125 g/ha ([7]; pre-emergence, Preemergence, scale 0 to 100 (0 no effect, 100 complete control), read-out: Plant response rating, Lambsquarters): 70% | pest or weed control at 500 g/ha ([7]; pre-emergence, Preemergence, scale 0 to 100 (0 no effect, 100 complete control), read-out: Lambsquarters plant response rating): 80% | pest or weed control at 125 g/ha ([8]; post-emergence, Postemergence, scale 0 to 100 (0 no effect, 100 complete control), read-out: Crabgrass plant response rating): 0% | pest or weed control at 500 g/ha ([8]; post-emergence, Postemergence, scale 0 to 100, read-out: Plant response rating, Crabgrass): 0% | pest or weed control at 125 g/ha ([8]; pre-emergence, Preemergence, scale 0 to 100 (0 no effect, 100 complete control), read-out: Plant response rating, Crabgrass): 0% | pest or weed control at 500 g/ha ([8]; pre-emergence, Preemergence, scale 0 to 100 (0 no effect, 100 complete control), read-out: Crabgrass plant response rating): 60% | pest or weed control at 125 g/ha ([9]; post-emergence, Postemergence, scale 0 to 100 (0 no effect, 100 complete control), read-out: Morningglory plant response rating): 10% | pest or weed control at 500 g/ha ([9]; post-emergence, Postemergence, scale 0 to 100, read-out: Plant response rating, Morningglory): 30% | pest or weed control at 125 g/ha ([9]; pre-emergence, Preemergence, scale 0 to 100 (0 no effect, 100 complete control), read-out: Plant response rating, Morningglory): 50% | pest or weed control at 500 g/ha ([9]; pre-emergence, Preemergence, scale 0 to 100 (0 no effect, 100 complete control), read-out: Morningglory plant response rating): 90% | pest or weed control at 125 g/ha ([10]; post-emergence, Postemergence, scale 0 to 100 (0 no effect, 100 complete control), read-out: Velvetleaf plant response rating): 10% | pest or weed control at 500 g/ha ([10]; post-emergence, Postemergence, scale 0 to 100, read-out: Plant response rating, Velvetleaf): 30% | pest or weed control at 125 g/ha ([10]; pre-emergence, Preemergence, scale 0 to 100 (0 no effect, 100 complete control), read-out: Plant response rating, Velvetleaf): 10% | pest or weed control at 500 g/ha ([10]; pre-emergence, Preemergence, scale 0 to 100 (0 no effect, 100 complete control), read-out: Velvetleaf plant response rating): 80% | pest or weed control at 125 g/ha ([11]; post-emergence, Postemergence, scale 0 to 100 (0 no effect, 100 complete control), read-out: Barnyardgrass plant response rating): 0% | pest or weed control at 500 g/ha ([11]; post-emergence, Postemergence, scale 0 to 100, read-out: Plant response rating, Barnyardgrass): 0% | pest or weed control at 125 g/ha ([11]; pre-emergence, Preemergence, scale 0 to 100 (0 no effect, 100 complete control), read-out: Plant response rating, Barnyardgrass): 0% | pest or weed control at 500 g/ha ([11]; pre-emergence, Preemergence, scale 0 to 100 (0 no effect, 100 complete control), read-out: Barnyardgrass plant response rating): 10% | pest or weed control at 125 g/ha ([12]; post-emergence, Postemergence, scale 0 to 100 (0 no effect, 100 complete control), read-out: Foxtail, Giant plant response rating): 0% | pest or weed control at 500 g/ha ([12]; post-emergence, Postemergence, scale 0 to 100, read-out: Plant response rating, Foxtail, Giant): 0% | pest or weed control at 125 g/ha ([12]; pre-emergence, Preemergence, scale 0 to 100 (0 no effect, 100 complete control), read-out: Plant response rating, Foxtail, Giant): 0% | pest or weed control at 500 g/ha ([12]; pre-emergence, Preemergence, scale 0 to 100 (0 no effect, 100 complete control), read-out: Foxtail, Giant plant response rating): 10% | pest or weed control at 125 g/ha ([13]; post-emergence, Postemergence, scale 0 to 100 (0 no effect, 100 complete control), read-out: Cocklebur plant response rating): 0% | pest or weed control at 500 g/ha ([13]; post-emergence, Postemergence, scale 0 to 100, read-out: Plant response rating, Cocklebur): 10% | pest or weed control at 125 g/ha ([13]; pre-emergence, Preemergence, scale 0 to 100 (0 no effect, 100 complete control), read-out: Plant response rating, Cocklebur): 30% | pest or weed control at 500 g/ha ([13]; pre-emergence, Preemergence, scale 0 to 100 (0 no effect, 100 complete control), read-out: Cocklebur plant response rating): 80% | plant injury at 125 g/ha (corn (Zea mays); post-emergence, Postemergence, 125 g ai/ha, scale 0 to 100 (0 no effect, 100 complete control), read-out: Corn plant response rating): 0% | Corn plant response rating (crop injury, 0 = no effect, 100 = complete kill) at 500 g/ha (corn (Zea mays); post-emergence, Postemergence, 500 g ai/ha, scale 0 to 100): 0% | Corn plant response rating (crop injury, 0 = no effect, 100 = complete kill) at 125 g/ha (corn (Zea mays); pre-emergence, Preemergence, 125 g ai/ha, scale 0 to 100 (0 no effect, 100 complete control)): 0% | plant injury at 125 g/ha ([14]; post-emergence, Postemergence, scale 0 to 100 (0 no effect, 100 complete control), read-out: Wheat plant response rating): 10% | plant injury at 500 g/ha ([14]; post-emergence, Postemergence, scale 0 to 100, read-out: Plant response rating, Wheat): 20% | plant injury at 125 g/ha ([14]; pre-emergence, Preemergence, scale 0 to 100 (0 no effect, 100 complete control), read-out: Plant response rating, Wheat): 0% | plant injury at 500 g/ha ([14]; pre-emergence, Preemergence, scale 0 to 100 (0 no effect, 100 complete control), read-out: Wheat plant response rating): 30%
